Measured values taken from PubChem BioAssay AID602168 (The Scripps Research Institute Molecular Screening Center, 2012).
Active and inactive are the calls of the source. The rule behind the calls is not given here.

Target: Nuclear receptor coactivator 1 (Homo sapiens) (UniProt Q15788)
Assay: NCOA1 reporter inhibition potency – cell-based, luminescence, counter-screen for SRC3 inhibitor project, dose response (AID 602168)
Settings: Cell-based SRC1 luciferase reporter

Sequence of Nuclear receptor coactivator 1 (Homo sapiens) (Q15788 whole entry, looked up): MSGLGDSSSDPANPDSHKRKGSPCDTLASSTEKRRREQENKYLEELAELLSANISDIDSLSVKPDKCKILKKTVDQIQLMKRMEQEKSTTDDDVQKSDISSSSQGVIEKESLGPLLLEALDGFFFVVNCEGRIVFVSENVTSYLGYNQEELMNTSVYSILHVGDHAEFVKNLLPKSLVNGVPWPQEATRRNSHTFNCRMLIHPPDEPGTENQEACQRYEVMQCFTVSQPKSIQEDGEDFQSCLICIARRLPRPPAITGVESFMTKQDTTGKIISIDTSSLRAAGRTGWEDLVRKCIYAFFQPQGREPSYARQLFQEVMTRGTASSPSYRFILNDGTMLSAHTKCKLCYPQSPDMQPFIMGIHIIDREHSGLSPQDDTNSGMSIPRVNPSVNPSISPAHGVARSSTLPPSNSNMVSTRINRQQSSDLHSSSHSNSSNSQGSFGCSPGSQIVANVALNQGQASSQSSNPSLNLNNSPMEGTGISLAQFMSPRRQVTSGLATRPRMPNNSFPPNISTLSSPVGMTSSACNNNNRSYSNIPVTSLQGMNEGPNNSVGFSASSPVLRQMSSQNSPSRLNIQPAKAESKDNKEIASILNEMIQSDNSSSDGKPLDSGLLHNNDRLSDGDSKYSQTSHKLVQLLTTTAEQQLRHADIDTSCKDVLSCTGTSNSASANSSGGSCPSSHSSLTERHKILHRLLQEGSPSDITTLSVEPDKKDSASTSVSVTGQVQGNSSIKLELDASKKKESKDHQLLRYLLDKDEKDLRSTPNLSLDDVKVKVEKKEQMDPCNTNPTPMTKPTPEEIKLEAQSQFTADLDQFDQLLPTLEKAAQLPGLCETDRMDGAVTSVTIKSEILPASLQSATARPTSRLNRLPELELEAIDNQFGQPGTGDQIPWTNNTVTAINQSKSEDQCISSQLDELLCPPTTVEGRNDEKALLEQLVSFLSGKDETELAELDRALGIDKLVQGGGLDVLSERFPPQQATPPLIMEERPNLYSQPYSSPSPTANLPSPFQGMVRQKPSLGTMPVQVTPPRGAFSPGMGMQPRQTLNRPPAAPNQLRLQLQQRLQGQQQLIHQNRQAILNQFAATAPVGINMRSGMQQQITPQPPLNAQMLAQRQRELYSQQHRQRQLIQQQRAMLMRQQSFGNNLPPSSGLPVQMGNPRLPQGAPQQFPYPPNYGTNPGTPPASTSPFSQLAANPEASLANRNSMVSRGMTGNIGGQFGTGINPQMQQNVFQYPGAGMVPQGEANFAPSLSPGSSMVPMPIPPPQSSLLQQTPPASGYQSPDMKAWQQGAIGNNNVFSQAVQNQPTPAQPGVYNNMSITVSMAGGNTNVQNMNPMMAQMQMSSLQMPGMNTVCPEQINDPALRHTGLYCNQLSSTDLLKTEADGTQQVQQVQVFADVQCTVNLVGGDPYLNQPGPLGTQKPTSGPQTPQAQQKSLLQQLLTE

SMILES | IC50
COc1cc2[nH]c3c(Cl)ncnc3c2cc1OC | > 35.9 µM (inactive)
CCC(=O)N1CCN(c2ccnc3cc(Cl)ccc23)CC1 | inactive
Nc1nc2c(nnn2C2CC(O)C(CO)O2)c(=O)[nH]1 (stereo not drawn) | > 35.9 µM (inactive)
CCc1ccc(-c2nc(CSCC(=O)NCc3ccco3)c(C)o2)cc1 | > 35.9 µM (inactive)
COc1ccc(COC(=O)C2=C(C)NC(=O)NC2c2ccc(F)cc2)cc1 (stereo not drawn) | inactive
O=c1[nH]cnc2c1nnn2C1OC(CO)C(O)C1O (stereo not drawn) | > 35.8 µM (inactive)
COc1ccc(/C=C2/SC(=S)N(CCC(=O)O)C2=O)cc1 | > 35.9 µM (inactive)
Fc1ccccc1-c1csc(=Nc2cccnc2)n1CCCn1ccnc1 | 7.21 µM
S=C(Nc1ccccc1)Nc1ccc(OCc2ccc(Cl)cc2Cl)cc1 | inactive
Cc1cc2nccc(-c3ccncc3)n2n1 | inactive
CC(=O)/C(N=Nc1ccc2c(c1)OCCO2)=C(\C)O | > 35.9 µM (inactive)
Cc1ccc(N=c2c([N+](=O)[O-])nn(-c3ccc4c(c3)OCCO4)n2O)cc1F | > 35.9 µM (inactive)
CC(=O)Nc1ccc(SCC(=O)c2cc(C)n(-c3ccccc3)c2C)cc1 | > 35.9 µM (inactive)
Cc1ncc(CO)c(/C=N/NC(=O)c2cc3c(s2)CCCC3)c1O | inactive
COc1cc(C(=O)OCC(=O)Nc2sccc2C(N)=O)cc(OC)c1OC | > 35.9 µM (inactive)
O=C(CCl)N(c1ccccc1)C1CCS(=O)(=O)C1 (stereo not drawn) | inactive
COc1cc2c(ccc3cc(OC)c(OC)c(O)c32)cc1O | inactive
Cc1ccc(-n2c(Cl)c(Cl)nc(Cl)c2=O)cc1 | inactive
COc1cccc(-c2nnc3sc(C4CCCCC4)nn23)c1 | 3.46 µM
CS(=O)(=O)c1ccc(Sc2nc3ccccc3s2)c([N+](=O)[O-])c1 | > 35.9 µM (inactive)
COc1cc(/C=N/NC(=Nc2ccc(C)cc2)c2nc3ccccc3s2)ccc1O | 8.17 µM
Clc1ccc(-c2csc3ncnc(NCCN4CCOCC4)c23)cc1 | inactive
C/C(=N\NC(=S)Nc1cc(S(=O)(=O)N2CCOCC2)ccc1Cl)c1ccccc1F | inactive
Cc1ccc(NC(=O)c2cc(C)n(-c3ccccc3)c2C)cc1 | > 35.9 µM (inactive)
C=CCOc1ccc(/C=C2\SC(=S)N(CCC(=O)O)C2=O)cc1 | 6.96 µM
Oc1ccc(C=NNc2ccccn2)c(O)c1 | > 35.9 µM (inactive)
NC(=O)c1cc(Sc2ccccc2)nc2ccccc12 | inactive

SMILES | IC50
O=C(NCc1ccccc1)c1c(Cl)nc(Cl)c(Cl)c1Cl | > 35.9 µM (inactive)
O=C(OCc1ccccc1)c1ccc(NCc2cc(O)ccc2O)cc1 | > 12 µM (inactive)
O=C(Nc1ccc(OCC(=O)N2CCOCC2)cc1)c1cncc(Br)c1 | inactive
CN(Cc1cnc2nc(N)nc(N)c2n1)c1ccc(C(=O)N[C@@H](CCC(=O)O)C(=O)O)cc1 | > 35.9 µM (inactive)
CCCNC(=O)c1nnsc1S(=O)(=O)c1ccc(Cl)cc1 | inactive
CC(=O)NC(c1cc(Cl)c2cccnc2c1O)C(C)C (stereo not drawn) | 7.94 µM
COc1cccc(NC(=O)CSc2nnc(-c3cc(C)n(-c4ccccc4)c3C)o2)c1 | > 35.9 µM (inactive)
Cn1cnc([N+](=O)[O-])c1Sc1nc(N)nc2c1ncn2C1OC(CO)C(O)C1O (stereo not drawn) | > 35.9 µM (inactive)
O=[N+]([O-])c1cccc2c1ccc1ncccc12 | inactive
CN(Cc1cnc2nc(N)nc(N)c2n1)c1ccc(C(=O)NC(CCC(=O)O)C(=O)O)c2ccccc12 (stereo not drawn) | > 35.9 µM (inactive)
CCOC(=O)CC(=O)CSc1nccc(-c2cccnc2)n1 | > 35.9 µM (inactive)
COc1ccc(/C=C2\CN(Cc3ccccc3)C/C(=C\c3ccc(OC)c(O)c3)C2=O)cc1O | > 35.9 µM (inactive)
Cc1cccc2sc(NNC(=O)c3ccc(S(=O)(=O)N4CC(C)CC(C)C4)cc3)nc12 (stereo not drawn) | 4.52 µM
O=C(CCCc1nc(-c2ccccc2Cl)no1)NC1CCCC1 | inactive
COc1cc(/C=C2\CC(C(C)(C)C)C/C(=C\c3cc(OC)c(OC)c(OC)c3)C2=O)cc(OC)c1OC (stereo not drawn) | > 35.9 µM (inactive)
O=C(CC(Nc1ccc(Cl)cc1Cl)C(=O)O)c1ccccc1 (stereo not drawn) | > 35.9 µM (inactive)
CC(C)N(c1ccccc1)c1ccc(NC(=O)CCl)cc1 | > 35.8 µM (inactive)
C=CC[n+]1c(-c2ccc(C)cc2)csc1Nc1ccc(NC(C)=O)cc1 | > 35.9 µM (inactive)
C=C1C(=O)[C@]23C[C@H]1CCC2[C@@]1(C)C(C[C@@H]3O)[C@](C)(C(=O)OC)CC[C@@H]1O (stereo partly drawn) | inactive
CCn1c2ccccc2c2cnc(N=CN(C)C)c(C#N)c21 | inactive
Cc1ccc2nc(-c3ccncc3)c(NC3CCCC3)n2c1 | inactive
O=C(CC1CS(=O)(=O)CC1CC(=O)Nc1ccc2c(c1)OCCO2)Nc1ccc2c(c1)OCCO2 (stereo not drawn) | > 35.9 µM (inactive)
O=C(Nc1nc2ccccc2s1)C1c2ccccc2Oc2ccccc21 | inactive
CC(=O)OCCN1c2ccccc2Sc2cnccc21 | inactive
NC(=S)N/N=C1\CCSc2ccc(Cl)cc21 | > 35.8 µM (inactive)
Cc1cc(C(=O)CN2C(=O)c3ccccc3S2(=O)=O)c(C)n1C(C)C | inactive
